Test system: Hs578T multi-cell spheroids, viability
Experiment: Anticancer human tumor Hs578T cell line growth inhibition [IpAb];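 also: drug exposure lasted 7 days before readout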
Conditions: for IC50: curve of first compound; for viability, T/C: stronger effect = lower value
Method in brief: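 Multi-cell spheroids of 60% tumour cells, 25% HUVEC and 15% MSC in ultra-low-attachment U-bottom wells, treated with agents combined with ipatasertib or abemaciclib. Half-log ranges top out near clinical Cmax, or 10 microM when Cmax is unknown.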

Cn1ncc(Cl)c1-c1cc(C(=O)NC(CN)Cc2cccc(F)c2)sc1Cl (stereo not given) + CCN1CCN(Cc2ccc(Nc3ncc(F)c(-c4cc(F)c5nc(C)n(C(C)C)c5c4)n3)nc2)CC1 showed an IC50 (second compound 0.01 µM) of 1410 nM, an IC50 (second compound 0.0316 µM) of 1330 nM and an IC50 (second compound 0.1 µM) of 791 nM. It also gave an IC50 (second compound 0.316 µM) of 829 nM, an IC50 (second compound 1 µM) of 1210 nM and a viability, T/C (second compound 0.01 µM, first compound 0.0316 µM) of 92.1%. The viability, T/C (second compound 0.01 µM, first compound 0.1 µM) was 83.3%, the viability, T/C (second compound 0.01 µM, first compound 0.316 µM) was 67.1% and the viability, T/C (second compound 0.01 µM, first compound 1 µM) was 49.1%. It also gave a viability, T/C (second compound 0.01 µM, first compound 3.16 µM) of 46.8%, a viability, T/C (second compound 0.01 µM, first compound 10 µM) of 0.26% and a viability, T/C (second compound 0.0316 µM, first compound 0.0316 µM) of 86%. The viability, T/C (second compound 0.0316 µM, first compound 0.1 µM) was 76.8%, the viability, T/C (second compound 0.0316 µM, first compound 0.316 µM) was 65.2% and the viability, T/C (second compound 0.0316 µM, first compound 1 µM) was 51.2%. It also gave a viability, T/C (second compound 0.0316 µM, first compound 3.16 µM) of 42%, a viability, T/C (second compound 0.0316 µM, first compound 10 µM) of 0.24% and a viability, T/C (second compound 0.1 µM, first compound 0.0316 µM) of 80.5%. For the same compound, the viability, T/C (second compound 0.1 µM, first compound 0.1 µM) was 67.5%, the viability, T/C (second compound 0.1 µM, first compound 0.316 µM) was 52.9% and the viability, T/C (second compound 0.1 µM, first compound 1 µM) was 42.5%. The viability, T/C (second compound 0.1 µM, first compound 3.16 µM) was 42.5%, the viability, T/C (second compound 0.1 µM, first compound 10 µM) was 0.24% and the viability, T/C (second compound 0.316 µM, first compound 0.0316 µM) was 81.2%. For the same compound, the viability, T/C (second compound 0.316 µM, first compound 0.1 µM) was 72%, the viability, T/C (second compound 0.316 µM, first compound 0.316 µM) was 56.7% and the viability, T/C (second compound 0.316 µM, first compound 1 µM) was 47.6%. The viability, T/C (second compound 0.316 µM, first compound 3.16 µM) was 33.9%, the viability, T/C (second compound 0.316 µM, first compound 10 µM) was 0.21% and the viability, T/C (second compound 1 µM, first compound 0.0316 µM) was 90%. The viability, T/C (second compound 1 µM, first compound 0.1 µM) was 76.6%, the viability, T/C (second compound 1 µM, first compound 0.316 µM) was 67.3% and the viability, T/C (second compound 1 µM, first compound 1 µM) was 60.1%. It also gave a viability, T/C (second compound 1 µM, first compound 3.16 µM) of 7.93% and a viability, T/C (second compound 1 µM, first compound 10 µM) of 0.46%.

— PubChem BioAssay AID2060331 (Molecular Pharmacology Branch, DTP, NCI, 2025)
